Test results taken from PMC7979765, “trans-Translation inhibitors bind to a novel site on the ribosome and clear Neisseria gonorrhoeae in vivo” (Nature Communications, 2021).
Several values for one entry are separate records, joined by “and”; a condition that tells them apart may be missing. Identical values can stand only once. Like-named read-outs stand apart in the source and are kept apart here.

Assays:
[1] = Liver microsome stability, human; assay type: in vitro ADME
Method: To examine potential for first-pass metabolism of analogs in the liver, the stability of analogs in the presence of liver microsome preparations (Eurofins Discovery for human, dog and rat; Xenotech for mouse) was measured using the method of Kuhnz, et al.[50]. for murine studies and Oback for the dog, human and rat studies. The amount of parent compound remaining after incubation with microsomes in the presence of NADPH over a 30 min time range was measured using a reverse-phase liquid chromatography/mass spectroscopy method that was customized for each compound. Half-lives were calculated using linear regression analysis of several time points.

Caco-2 permeability = assay type: in vitro ADME, human; conditions: human
Method: (§1) To evaluate the potential for oral bioavailability, the ability of prioritized compounds to permeate a monolayer of Caco-2 (ATCC HTB-37) intestinal epithelial cells was determined as described. Caco-2 permeability values (Papp) > 1 × 10^−6 cm/sec are predictive of oral bioavailability.

Caco-2 cells = assay: Caco-2 permeability; assay type: in vitro ADME, human
Method: as §1

[2] = Serum protein binding, rat; assay type: in vitro ADME; conditions: Eurofins; for fraction unbound: rat, serum, read-out: Serum binding (% bound) Rat (converted)
Method: Serum protein binding was determined using an equilibrium dialysis method as described. The amount of compound in each chamber (buffer and serum) was measured using methods for reverse-phase liquid chromatography/mass spectroscopy methods that were customized for each compound.

[3] = Murine tolerability studies; assay type: in vivo; conditions: for adverse effects (in words): mice
Method: Single dose tolerability studies — Female CD-1 mice were fasted for 2 h prior, and 4 h after dosing. […] 4–6 weeks-old CD-1 female mice were received from Charles River laboratories and acclimated for at least 5 days prior to the start of the study. Apart from specific instances of fasting described in the experimental, the mice had free access to food and water. The animals were housed 3–6 per cage in a temperature and humidity-controlled room with a 12 h light cycle. All procedures described are in compliance with the Animal Welfare Act, the Guide for the Care and Use of Laboratory Animals, and the Office of Laboratory Animal Welfare. These studies conform to the NeoSome IACUC policies and Operational Guidelines as approved by the IACUC membership, NeoSome Safety Officers, or Attending Veterinarian. All testing was performed at Neosome LLC.
Multidose tolerability studies — In preparation for this study, an abbreviated version of the above murine PK study using the same formulation (A) examined fasted mice vs. fed mice was performed, with plasma samples taken at 1 and 4 h post dosing and analyses as described in the PK section.
Female CD-1 mice were given free access to food and water. […] Any abnormal observations (behavior, agility, weight, coat condition and appearance, color of urine, quality of feces, etc.) were noted.

CYP2B6 = target: T1, CYP2B6 (Homo sapiens, UniProt P20813); assay: Cyp inhibition assay 4877; assay type: in vitro ADME; conditions: catalog reference 4877, read-out: pIC50 (µM) reported (converted)
T1 construct: Eurofins Discovery Services (contract assay) 4877
Method: (§2) Several in vitro selectivity assays were performed at Eurofins Discovery Services using established methods and controls that behaved as expected (Supplementary Tables 5 and 6). […] For receptor panel profiling, MBX-4132 was evaluated at 10 μM and activity of >50% (agonist or antagonist; note that negative % inhibition indicates agonism) was scored as active.

Cav1.2 = target: T2, Cav1.2 (Homo sapiens, UniProt Q13936); assay: cell-based
T2 construct: Eurofins Discovery Services (contract assay) CYL8051QP2DR
Method: as §2

KCNQ1/mink = target: T3, KCNQ1/mink (Homo sapiens, UniProt P51787); assay: cell-based
T3 construct: Eurofins Discovery Services (contract assay) CYL8007QP2DR
Method: as §2

Cycloogenase COX-1 = target: T4, Cycloogenase COX-1 (Homo sapiens, UniProt P23219); assay: Receptor Profiling 116030; assay type: biochemical
T4 construct: Eurofins Discovery Services (contract assay) 116030
Method: as §2

Phosphodiesterase PDE4D2 = target: T5, Phosphodiesterase PDE4D2 (Homo sapiens, UniProt Q08499); assay: Receptor Profiling 154420; assay type: biochemical
T5 construct: Eurofins Discovery Services (contract assay) 154420
Method: as §2

Adenosine A2A = target: T6, Adenosine A2A (Homo sapiens, UniProt P29274); assay: Receptor Profiling 200610; assay type: binding
T6 construct: purchased Eurofins Discovery Services (Panlabs safety panel)
Method: as §2

Adrenergic α1A = target: T7, Adrenergic α1A (Homo sapiens, UniProt P35348); assay: Receptor Profiling 203110; assay type: binding
T7 construct: purchased Eurofins Discovery Services (Panlabs safety panel)
Method: as §2

Adrenergic β2 = target: T8, Adrenergic β2 (Homo sapiens, UniProt P07550); assay: Receptor Profiling 204110; assay type: binding
T8 construct: purchased Eurofins Discovery Services (Panlabs safety panel)
Method: as §2

[4] = system: Calcium Channel L-Type, Dihydropyridine; assay: Receptor Profiling 214600; assay type: binding, rat; conditions: 10 μM
Method: as §2

Cannabinoid CB2 = target: T9, Cannabinoid CB2 (Homo sapiens, UniProt P34972); assay: Receptor Profiling 217100; assay type: binding
T9 construct: purchased Eurofins Discovery Services (Panlabs safety panel)
Method: as §2

Dopamine D1 = target: T10, Dopamine D1 (Homo sapiens, UniProt P21728); assay: Receptor Profiling 219500; assay type: binding
T10 construct: purchased Eurofins Discovery Services (Panlabs safety panel)
Method: as §2

Glucocorticoid = target: T11, Glucocorticoid (Homo sapiens, UniProt P04150); assay: Receptor Profiling 232030; assay type: binding
T11 construct: purchased Eurofins Discovery Services (Panlabs safety panel)
Method: as §2

Muscarinic M1 = target: T12, Muscarinic M1 (Homo sapiens, UniProt P11229); assay: Receptor Profiling 252610; assay type: binding
T12 construct: purchased Eurofins Discovery Services (Panlabs safety panel)
Method: as §2

Sodium Channel, Site 2 = assay: Receptor Profiling 279510; assay type: binding, rat; conditions: 10 μM
Method: as §2

[5] = system: N. gonorrhoeae strain H041; assay: In vivo efficacy in the gonorrhea mouse model; conditions: for mouse cfu: individual mice, 2.00E+01 = no CFU/mL recovered, limit of detection

T5 sequence (Q08499 303-809 limits assumed): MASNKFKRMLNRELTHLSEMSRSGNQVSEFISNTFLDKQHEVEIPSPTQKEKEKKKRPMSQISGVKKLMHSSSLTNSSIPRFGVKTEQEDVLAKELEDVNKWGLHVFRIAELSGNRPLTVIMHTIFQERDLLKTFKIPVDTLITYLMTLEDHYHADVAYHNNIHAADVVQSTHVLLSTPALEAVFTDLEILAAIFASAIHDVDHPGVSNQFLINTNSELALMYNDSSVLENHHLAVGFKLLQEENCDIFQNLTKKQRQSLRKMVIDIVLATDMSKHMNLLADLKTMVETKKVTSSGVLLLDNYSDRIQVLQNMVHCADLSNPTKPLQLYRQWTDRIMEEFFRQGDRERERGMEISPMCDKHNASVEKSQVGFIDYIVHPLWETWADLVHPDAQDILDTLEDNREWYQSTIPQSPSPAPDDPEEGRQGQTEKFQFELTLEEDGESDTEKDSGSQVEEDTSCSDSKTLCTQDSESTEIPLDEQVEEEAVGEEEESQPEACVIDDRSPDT
T2 sequence (Q13936 whole entry): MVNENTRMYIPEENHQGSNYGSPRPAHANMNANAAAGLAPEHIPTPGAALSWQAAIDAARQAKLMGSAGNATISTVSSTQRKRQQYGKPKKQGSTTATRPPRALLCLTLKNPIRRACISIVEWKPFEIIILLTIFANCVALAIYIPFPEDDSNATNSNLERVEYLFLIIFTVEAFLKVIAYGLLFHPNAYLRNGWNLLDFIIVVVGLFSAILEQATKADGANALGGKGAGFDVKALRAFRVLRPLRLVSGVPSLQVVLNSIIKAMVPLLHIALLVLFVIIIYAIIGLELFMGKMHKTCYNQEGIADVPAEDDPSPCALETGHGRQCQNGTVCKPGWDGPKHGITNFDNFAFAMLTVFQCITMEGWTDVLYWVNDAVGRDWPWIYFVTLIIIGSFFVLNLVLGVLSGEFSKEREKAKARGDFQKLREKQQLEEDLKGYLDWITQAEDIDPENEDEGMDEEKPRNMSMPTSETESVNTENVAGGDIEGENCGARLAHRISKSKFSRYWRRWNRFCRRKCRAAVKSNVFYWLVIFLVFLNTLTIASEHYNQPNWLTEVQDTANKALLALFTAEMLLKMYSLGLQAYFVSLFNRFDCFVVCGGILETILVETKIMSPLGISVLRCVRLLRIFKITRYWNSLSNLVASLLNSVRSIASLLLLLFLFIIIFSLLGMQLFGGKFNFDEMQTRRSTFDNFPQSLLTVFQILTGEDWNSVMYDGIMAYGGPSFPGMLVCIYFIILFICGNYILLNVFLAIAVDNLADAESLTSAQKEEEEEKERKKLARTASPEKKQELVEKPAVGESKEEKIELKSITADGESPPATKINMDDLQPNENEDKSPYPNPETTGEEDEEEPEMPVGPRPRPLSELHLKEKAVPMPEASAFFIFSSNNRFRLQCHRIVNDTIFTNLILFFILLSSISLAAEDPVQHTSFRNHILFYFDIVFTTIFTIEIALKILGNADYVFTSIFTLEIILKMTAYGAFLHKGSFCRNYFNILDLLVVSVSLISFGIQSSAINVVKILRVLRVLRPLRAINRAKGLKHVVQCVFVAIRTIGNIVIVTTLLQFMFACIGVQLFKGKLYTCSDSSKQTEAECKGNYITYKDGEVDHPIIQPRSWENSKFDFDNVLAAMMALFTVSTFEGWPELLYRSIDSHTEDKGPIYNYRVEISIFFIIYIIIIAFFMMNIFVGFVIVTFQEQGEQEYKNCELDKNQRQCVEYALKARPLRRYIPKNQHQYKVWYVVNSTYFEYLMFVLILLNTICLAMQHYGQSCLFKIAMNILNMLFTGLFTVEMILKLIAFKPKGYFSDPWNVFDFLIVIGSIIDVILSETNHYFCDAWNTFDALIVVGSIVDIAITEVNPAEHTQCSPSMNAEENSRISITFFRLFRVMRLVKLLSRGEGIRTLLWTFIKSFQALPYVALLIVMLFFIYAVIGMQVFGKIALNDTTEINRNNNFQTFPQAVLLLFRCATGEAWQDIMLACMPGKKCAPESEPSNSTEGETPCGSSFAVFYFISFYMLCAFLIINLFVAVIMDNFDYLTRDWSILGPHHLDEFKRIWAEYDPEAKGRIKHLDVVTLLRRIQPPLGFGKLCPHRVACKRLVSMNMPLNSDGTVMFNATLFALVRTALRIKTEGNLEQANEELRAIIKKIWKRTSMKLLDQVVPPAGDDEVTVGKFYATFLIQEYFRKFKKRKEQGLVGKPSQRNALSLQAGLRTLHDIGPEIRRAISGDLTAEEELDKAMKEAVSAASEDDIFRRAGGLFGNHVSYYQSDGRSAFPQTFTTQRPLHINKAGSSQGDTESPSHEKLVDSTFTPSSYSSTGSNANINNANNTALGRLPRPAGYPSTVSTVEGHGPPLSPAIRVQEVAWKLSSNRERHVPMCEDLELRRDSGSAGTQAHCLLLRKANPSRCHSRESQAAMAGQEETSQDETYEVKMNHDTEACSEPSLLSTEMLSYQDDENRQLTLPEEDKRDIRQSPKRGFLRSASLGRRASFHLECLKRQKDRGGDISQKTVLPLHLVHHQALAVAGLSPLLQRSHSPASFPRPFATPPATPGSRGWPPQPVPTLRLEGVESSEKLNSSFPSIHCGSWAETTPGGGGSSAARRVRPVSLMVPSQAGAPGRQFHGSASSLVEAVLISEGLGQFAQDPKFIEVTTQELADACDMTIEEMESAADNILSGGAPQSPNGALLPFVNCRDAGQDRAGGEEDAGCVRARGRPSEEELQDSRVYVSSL
T2 sequence (Q08289 whole entry partner): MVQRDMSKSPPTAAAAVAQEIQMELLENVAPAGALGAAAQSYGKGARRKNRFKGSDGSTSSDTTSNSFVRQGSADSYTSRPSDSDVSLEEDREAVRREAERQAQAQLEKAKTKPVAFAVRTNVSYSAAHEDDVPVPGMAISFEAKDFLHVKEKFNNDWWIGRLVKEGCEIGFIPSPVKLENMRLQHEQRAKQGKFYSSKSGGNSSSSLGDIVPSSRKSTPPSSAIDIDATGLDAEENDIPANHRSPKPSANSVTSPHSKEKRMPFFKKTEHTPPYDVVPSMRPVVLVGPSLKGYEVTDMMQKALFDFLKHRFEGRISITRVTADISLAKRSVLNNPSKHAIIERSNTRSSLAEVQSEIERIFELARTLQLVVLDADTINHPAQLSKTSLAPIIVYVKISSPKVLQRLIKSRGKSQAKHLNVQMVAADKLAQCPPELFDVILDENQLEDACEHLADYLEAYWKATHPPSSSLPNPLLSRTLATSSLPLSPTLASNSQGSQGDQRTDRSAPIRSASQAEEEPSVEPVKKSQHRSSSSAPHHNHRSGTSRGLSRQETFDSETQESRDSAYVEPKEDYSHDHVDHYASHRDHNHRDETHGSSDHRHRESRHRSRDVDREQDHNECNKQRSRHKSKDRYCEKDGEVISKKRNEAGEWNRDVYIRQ
T2 sequence (P54289 25-946 partner limits assumed): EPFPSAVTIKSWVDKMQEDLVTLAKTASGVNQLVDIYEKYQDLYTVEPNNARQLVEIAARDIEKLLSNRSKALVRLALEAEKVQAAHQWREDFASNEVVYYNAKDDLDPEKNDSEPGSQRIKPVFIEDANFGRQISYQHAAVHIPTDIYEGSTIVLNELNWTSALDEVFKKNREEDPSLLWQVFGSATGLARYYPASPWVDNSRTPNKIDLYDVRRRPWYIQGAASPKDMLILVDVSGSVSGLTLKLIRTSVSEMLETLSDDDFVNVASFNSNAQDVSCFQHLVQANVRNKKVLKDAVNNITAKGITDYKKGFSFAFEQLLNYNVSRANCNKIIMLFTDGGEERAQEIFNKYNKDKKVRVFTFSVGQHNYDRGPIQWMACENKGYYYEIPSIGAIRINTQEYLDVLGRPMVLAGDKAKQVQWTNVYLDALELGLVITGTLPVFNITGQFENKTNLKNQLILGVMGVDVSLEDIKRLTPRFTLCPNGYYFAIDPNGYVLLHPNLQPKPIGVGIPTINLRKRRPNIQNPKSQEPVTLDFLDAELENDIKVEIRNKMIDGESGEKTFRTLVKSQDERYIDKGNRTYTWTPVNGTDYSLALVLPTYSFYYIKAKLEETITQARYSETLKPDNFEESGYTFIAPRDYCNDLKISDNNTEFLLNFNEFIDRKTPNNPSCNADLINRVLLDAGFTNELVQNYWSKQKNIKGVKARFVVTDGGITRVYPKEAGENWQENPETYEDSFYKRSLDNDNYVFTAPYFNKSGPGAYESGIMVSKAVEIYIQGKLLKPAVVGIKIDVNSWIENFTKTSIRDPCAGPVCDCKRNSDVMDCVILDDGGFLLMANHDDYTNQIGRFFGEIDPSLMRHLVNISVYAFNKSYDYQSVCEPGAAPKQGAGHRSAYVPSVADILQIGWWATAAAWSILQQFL
T2 sequence (P54289 947-1103 partner limits assumed): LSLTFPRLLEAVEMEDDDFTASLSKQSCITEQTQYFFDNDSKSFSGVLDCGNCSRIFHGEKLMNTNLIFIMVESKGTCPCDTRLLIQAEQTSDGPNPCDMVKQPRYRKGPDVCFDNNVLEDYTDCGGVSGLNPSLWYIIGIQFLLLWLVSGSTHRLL
T1 sequence (P20813 whole entry): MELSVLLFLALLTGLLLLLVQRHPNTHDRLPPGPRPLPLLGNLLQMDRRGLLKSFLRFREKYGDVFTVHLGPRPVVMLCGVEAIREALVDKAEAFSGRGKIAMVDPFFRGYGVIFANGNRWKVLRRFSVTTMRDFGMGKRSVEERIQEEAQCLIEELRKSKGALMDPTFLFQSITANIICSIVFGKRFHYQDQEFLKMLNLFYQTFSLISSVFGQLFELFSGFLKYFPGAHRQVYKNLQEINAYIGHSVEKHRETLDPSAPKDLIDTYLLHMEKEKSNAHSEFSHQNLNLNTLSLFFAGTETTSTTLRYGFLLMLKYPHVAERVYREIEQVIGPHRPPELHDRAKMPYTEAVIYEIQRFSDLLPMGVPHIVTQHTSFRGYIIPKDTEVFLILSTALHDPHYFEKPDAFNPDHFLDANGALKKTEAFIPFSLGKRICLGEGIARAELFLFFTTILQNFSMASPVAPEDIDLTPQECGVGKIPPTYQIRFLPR

Question: For O=C(Nc1nnc(-c2ccc(F)cc2)o1)N1CCc2ccccc2C1 [MBX-4132], which “Microsomal stability (t½, min) Human” value ([1]; Reported value, Eurofins) is on record?
Answer: >120 min

Question: What about the half-life ([1]; human, liver microsomes, read-out: Microsomal Stability (t1/2; min) Hum.) of the same compound?
Answer: > 2 h

Question: What about the Papp A→B (Caco-2 permeability; Caco-2, A to B, read-out: Caco-2 Papp (A to B)) of the same compound?
Answer: 11.1 ×10⁻⁶ cm/s

Question: What about the Papp A→B (Caco-2 permeability; Caco-2, A→B, Average Value, Eurofins, read-out: Caco-2 A→B) of the same compound?
Answer: 11.1 ×10⁻⁶ cm/s

Question: And the Papp A→B (Caco-2 permeability; Caco-2, A→B, Replicate 1/2, Eurofins, read-out: Caco-2 A→B)?
Answer: 12.4 ×10⁻⁶ cm/s

Question: What about the Papp A→B (Caco-2 permeability; Caco-2, A→B, Reported value, Eurofins, read-out: Caco-2 A→B) of the same compound?
Answer: 11.1 ×10⁻⁶ cm/s

Question: And the Papp B→A (Caco-2 permeability; Caco-2, B to A, read-out: Caco-2 Papp B to A)?
Answer: 7.3 ×10⁻⁶ cm/s

Question: What about the Papp B→A (Caco-2 permeability; Caco-2, B→A, Average Value, Eurofins, read-out: Caco-2 B→A) of the same compound?
Answer: 7.3 ×10⁻⁶ cm/s

Question: What about the Papp B→A (Caco-2 permeability; Caco-2, B→A, Replicate 1/2, Eurofins, read-out: Caco-2 B→A) of the same compound?
Answer: 6.33 ×10⁻⁶ cm/s

Question: What about the Papp B→A (Caco-2 permeability; Caco-2, B→A, Reported value, Eurofins, read-out: Caco-2 B→A) of the same compound?
Answer: 7.3 ×10⁻⁶ cm/s

Question: What about the “Caco-2 Papp (A to B)” value (Caco-2 cells; A to B) of the same compound?
Answer: 11 x 10^-6 cms^-1

Question: And the “Caco-2 (Papp; x 10-6 cms-1) A→B” value (Caco-2 cells; A→B, Replicate 1/2, Eurofins)?
Answer: 9.9 x 10-6 cms-1

Question: What about the “Caco-2 (Papp; x 10-6 cms-1) B→A” value (Caco-2 cells; B→A, Replicate 1/2, Eurofins) of the same compound?
Answer: 8.19 x 10-6 cms-1

Question: What about the “Serum binding (% bound) Rat” value ([2]; Replicate 1/2) of the same compound?
Answer: 99.9% and 85.2%

Question: What about the fraction unbound ([2]; Reported value) of the same compound?
Answer: 0.07

Question: What about the fraction unbound ([2]; Average Value) of the same compound?
Answer: 0.074

Question: And the “abnormal observations, multidose tolerability” value ([3]; female CD-1 mice, 10 ml/kg of 1.0 mg/ml suspension QD or BID for 7 d, observed 10 d)?
Answer: No abnormal observations

Question: What about the “abnormal observations, single dose tolerability” value ([3]; female CD-1 mice, oral gavage 10 ml/kg of 1.0, 2.5 or 10.0 mg/ml suspension, 24 h) of the same compound?
Answer: No abnormal observations

Question: What about the “adverse effects (in words)” value ([3]; repeat dosing 10 mg/kg BID, 7 d) of the same compound?
Answer: no obvious adverse effects

Question: What about the “adverse effects (in words)” value ([3]; single dose of 100 mg/kg) of the same compound?
Answer: no obvious adverse effects

Question: And the IC50 (CYP2B6)?
Answer: > 100 µM

Question: And the IC50 (Cav1.2)?
Answer: > 30 µM

Question: And the IC50 (KCNQ1/mink)?
Answer: > 30 µM

Question: What about the inhibition at 10 µM (Cycloogenase COX-1) of the same compound?
Answer: 8%

Question: And the inhibition at 10 µM (Phosphodiesterase PDE4D2)?
Answer: 3%

Question: What about the inhibition at 10 µM (Adenosine A2A) of the same compound?
Answer: 42%

Question: What about the inhibition at 10 µM (Adrenergic α1A) of the same compound?
Answer: 6%

Question: And the inhibition at 10 µM (Adrenergic β2)?
Answer: 35%

Question: What about the “% inhibition” value [4] of the same compound?
Answer: 11%

Question: And the inhibition at 10 µM (Cannabinoid CB2)?
Answer: -4%

Question: What about the inhibition at 10 µM (Dopamine D1) of the same compound?
Answer: 26%

Question: And the inhibition at 10 µM (Glucocorticoid)?
Answer: -2%

Question: And the inhibition at 10 µM (Muscarinic M1)?
Answer: -7%

Question: And the “% inhibition” value (Sodium Channel, Site 2)?
Answer: 21%

Question: What about the mouse cfu ([5]; Day 5, MBX-4132 10 MPK, 10 mg/kg) of the same compound?
Answer: 2.00E+01 CFU/mL (14×) and 4.20E+02 CFU/mL and 2.61E+03 CFU/mL and 2.38E+03 CFU/mL and 3.50E+05 CFU/mL and 1.00E+06 CFU/mL and 2.60E+02 CFU/mL

Question: What about the mouse cfu ([5]; Day 6, MBX-4132 10 MPK, 10 mg/kg) of the same compound?
Answer: 2.00E+01 CFU/mL (16×) and 1.46E+03 CFU/mL and 2.08E+04 CFU/mL and 3.12E+05 CFU/mL and 7.20E+02 CFU/mL

Question: And the mouse cfu ([5]; Day 7, MBX-4132 10 MPK, 10 mg/kg)?
Answer: 2.00E+01 CFU/mL (18×) and 1.01E+04 CFU/mL and 1.16E+04 CFU/mL

Question: What about the mouse cfu ([5]; Day 8, MBX-4132 10 MPK, 10 mg/kg) of the same compound?
Answer: 2.00E+01 CFU/mL (18×) and 2.20E+02 CFU/mL and 7.00E+02 CFU/mL

Question: And the mouse cfu ([5]; Day -1, MBX-4132 10 MPK, 10 mg/kg)?
Answer: 2.16E+06 CFU/mL and 4.97E+06 CFU/mL and 1.86E+05 CFU/mL and 1.04E+06 CFU/mL and 6.26E+06 CFU/mL and 2.02E+05 CFU/mL and 3.50E+04 CFU/mL and 5.46E+03 CFU/mL and 1.66E+05 CFU/mL and 6.46E+05 CFU/mL and 2.23E+05 CFU/mL and 2.90E+05 CFU/mL and 2.17E+05 CFU/mL and 6.58E+03 CFU/mL and 2.34E+06 CFU/mL and 3.20E+02 CFU/mL and 3.63E+06 CFU/mL and 4.88E+05 CFU/mL and 3.45E+06 CFU/mL and 2.43E+06 CFU/mL

Question: And the “mice cleared per day: cleared flag” value ([5]; MBX-4132 10 MPK, individual mice 1-20, 1 = cleared on the day, 0 = not cleared, 10 mg/kg)?
Answer: 1 and 0

Question: What about the “Day (mice cleared per day: day on which the mouse was cleared)” value ([5]; MBX-4132 10 MPK, individual mice 1-20, Day 8 with flag 0 = not cleared, 10 mg/kg) of the same compound?
Answer: 3 and 8 and 6 and 5 and 1 and 4 and 2

Question: What about the “mice completely cleared of infection” value ([5]; single oral dose 10 mg/kg, by 6 days, N. gonorrhoeae H041) of the same compound?
Answer: 80%
